Results reported in the NIST ThermoML archive (doi:10.1016/j.jct.2016.09.041).
Where “and” joins values, the source holds several entries; their conditions need not be identical. Equal values may be shown once.

Assay: molar heat capacity at constant pressure
Conditions: 101.33 kPa, Small (less than 1 g) adiabatic calorimetry

N[C@@H](Cc1c[nH]c2ccccc12)C(=O)O [L-tryptophan]
molar heat capacity at constant pressure
Conditions	Crystal	Crystal 1
5 K	0.6568 J/K/mol	–
7.14 K	1.912 J/K/mol	–
7.31 K	2.029 J/K/mol	–
7.49 K	2.253 J/K/mol	–
7.66 K	2.22 J/K/mol	–
7.83 K	2.345 J/K/mol	–
8.01 K	2.511 J/K/mol	–
8.17 K	2.719 J/K/mol	–
8.33 K	2.893 J/K/mol	–
8.49 K	3.026 J/K/mol	–
8.64 K	3.118 J/K/mol	–
8.8 K	3.193 J/K/mol	–
8.95 K	3.5 J/K/mol	–
9.1 K	3.492 J/K/mol	–
9.25 K	3.783 J/K/mol	–
9.39 K	4.024 J/K/mol	–
9.54 K	4.041 J/K/mol	–
9.69 K	4.141 J/K/mol	–
9.83 K	4.34 J/K/mol	–
9.98 K	4.506 J/K/mol	–
10 K	4.49 J/K/mol	–
10.17 K	4.656 J/K/mol	–
10.41 K	4.889 J/K/mol	–
10.66 K	5.08 J/K/mol	–
10.9 K	5.363 J/K/mol	–
11.14 K	5.712 J/K/mol	–
11.39 K	5.978 J/K/mol	–
11.63 K	6.153 J/K/mol	–
11.88 K	6.419 J/K/mol	–
12.12 K	6.768 J/K/mol	–
12.37 K	7.009 J/K/mol	–
12.62 K	7.325 J/K/mol	–
12.87 K	7.591 J/K/mol	–
13.12 K	7.874 J/K/mol	–
13.37 K	8.132 J/K/mol	–
13.62 K	8.481 J/K/mol	–
13.87 K	8.697 J/K/mol	–
14.12 K	8.988 J/K/mol	–
14.37 K	9.37 J/K/mol	–
14.63 K	9.612 J/K/mol	–
14.89 K	9.994 J/K/mol	–
15 K	10.06 J/K/mol	–
15.14 K	10.24 J/K/mol	–
15.4 K	10.54 J/K/mol	–
15.65 K	10.85 J/K/mol	–
15.91 K	11.26 J/K/mol	–
16.17 K	11.59 J/K/mol	–
16.42 K	11.93 J/K/mol	–
16.68 K	12.31 J/K/mol	–
16.94 K	12.6 J/K/mol	–
17.2 K	12.88 J/K/mol	–
17.46 K	13.23 J/K/mol	–
17.72 K	13.64 J/K/mol	–
17.98 K	13.93 J/K/mol	–
18.24 K	14.28 J/K/mol	–
18.5 K	14.56 J/K/mol	–
18.77 K	14.98 J/K/mol	–
19.04 K	15.27 J/K/mol	–
19.3 K	15.67 J/K/mol	–
19.56 K	16.11 J/K/mol	–
19.82 K	16.35 J/K/mol	–
20 K	16.55 J/K/mol	–
20.09 K	16.75 J/K/mol	–
20.64 K	17.32 J/K/mol	–
21.4 K	18.33 J/K/mol	–
22.16 K	19.27 J/K/mol	–
22.93 K	20.25 J/K/mol	–
23.7 K	21.21 J/K/mol	–
24.47 K	22.27 J/K/mol	–
25 K	22.95 J/K/mol	–
25.24 K	23.36 J/K/mol	–
26.01 K	24.35 J/K/mol	–
26.79 K	25.26 J/K/mol	–
27.56 K	26.17 J/K/mol	–
28.34 K	27.19 J/K/mol	–
29.12 K	28.15 J/K/mol	–
29.9 K	29.13 J/K/mol	–
30 K	29.35 J/K/mol	–
30.69 K	30.2 J/K/mol	–
31.47 K	31.22 J/K/mol	–
32.25 K	32.16 J/K/mol	–
33.04 K	33.14 J/K/mol	–
33.83 K	34.04 J/K/mol	–
34.62 K	34.9 J/K/mol	–
35 K	35.34 J/K/mol	–
35.41 K	35.81 J/K/mol	–
36.19 K	36.73 J/K/mol	–
36.98 K	37.56 J/K/mol	–
37.77 K	38.4 J/K/mol	–
38.56 K	39.29 J/K/mol	–
39.36 K	40.19 J/K/mol	–
40 K	40.82 J/K/mol	–
40.15 K	40.92 J/K/mol	–
40.94 K	41.77 J/K/mol	–
41.73 K	42.6 J/K/mol	–
42.53 K	43.43 J/K/mol	–
43.32 K	44.32 J/K/mol	–
44.11 K	45.14 J/K/mol	–
44.91 K	45.95 J/K/mol	–
45 K	45.9 J/K/mol	–
45.71 K	46.69 J/K/mol	–
46.51 K	47.37 J/K/mol	–
47.31 K	48.09 J/K/mol	–
48.11 K	48.71 J/K/mol	–
48.9 K	49.39 J/K/mol	–
49.7 K	50.03 J/K/mol	–
50 K	50.55 J/K/mol	–
50.5 K	50.81 J/K/mol	–
51.3 K	51.51 J/K/mol	–
52.1 K	52.37 J/K/mol	–
52.9 K	53.35 J/K/mol	–
53.7 K	54.34 J/K/mol	–
54.5 K	55.43 J/K/mol	–
55.3 K	55.65 J/K/mol	–
56.1 K	56.39 J/K/mol	–
56.9 K	57.23 J/K/mol	–
57.7 K	57.95 J/K/mol	–
58.51 K	58.68 J/K/mol	–
59.31 K	59.42 J/K/mol	–
60 K	60.03 J/K/mol	–
60.12 K	60.15 J/K/mol	–
60.92 K	60.88 J/K/mol	–
61.73 K	61.6 J/K/mol	–
62.52 K	62.33 J/K/mol	–
63.32 K	63.58 J/K/mol	–
64.13 K	64.21 J/K/mol	–
64.93 K	64.88 J/K/mol	–
65.73 K	65.32 J/K/mol	–
66.54 K	65.98 J/K/mol	–
67.34 K	66.53 J/K/mol	–
68.15 K	67.1 J/K/mol	–
68.95 K	67.91 J/K/mol	–
69.75 K	68.59 J/K/mol	–
70 K	68.68 J/K/mol	–
70.56 K	69.1 J/K/mol	–
71.35 K	69.78 J/K/mol	–
72.16 K	70.26 J/K/mol	–
72.96 K	70.81 J/K/mol	–
73.76 K	71.51 J/K/mol	–
74.56 K	72.19 J/K/mol and 72.19 J/K/mol	–
75.36 K	72.76 J/K/mol	–
76.16 K	73.55 J/K/mol and 73.54 J/K/mol	–
76.96 K	74.19 J/K/mol	–
77.76 K	74.88 J/K/mol and 74.88 J/K/mol	–
77.81 K	74.18 J/K/mol	–
77.91 K	74.86 J/K/mol	–
77.92 K	74.32 J/K/mol	–
78.27 K	74.94 J/K/mol	–
78.42 K	75.32 J/K/mol	–
78.45 K	75.01 J/K/mol	–
78.56 K	75.5 J/K/mol	–
78.82 K	75.44 J/K/mol	–
78.84 K	74.99 J/K/mol	–
78.87 K	75.62 J/K/mol	–
79.2 K	75.99 J/K/mol	71.01 J/K/mol
79.22 K	75.33 J/K/mol	–
79.24 K	75.75 J/K/mol	–
79.33 K	76.02 J/K/mol	–
79.36 K	76.16 J/K/mol	–
79.37 K	76.15 J/K/mol	–
79.62 K	–	70.64 J/K/mol
79.64 K	–	70.29 J/K/mol
79.68 K	–	70.63 J/K/mol
80 K	–	71.09 J/K/mol
80.02 K	–	71.26 J/K/mol
80.04 K	–	70.54 J/K/mol
80.14 K	–	70.97 J/K/mol
80.17 K	–	71.35 J/K/mol and 71.35 J/K/mol
80.19 K	–	71.22 J/K/mol
80.41 K	–	71.6 J/K/mol
80.43 K	–	70.98 J/K/mol
80.48 K	–	71.27 J/K/mol
80.81 K	–	72.02 J/K/mol
80.83 K	–	71.17 J/K/mol
80.94 K	–	71.85 J/K/mol
80.98 K	–	72.02 J/K/mol and 72.02 J/K/mol
80.99 K	–	72 J/K/mol
81.21 K	–	72.51 J/K/mol
81.23 K	–	71.92 J/K/mol
81.28 K	–	72.06 J/K/mol
81.61 K	–	72.57 J/K/mol
81.63 K	–	72.55 J/K/mol
81.74 K	–	72.46 J/K/mol
81.79 K	–	72.78 J/K/mol and 72.65 J/K/mol and 72.78 J/K/mol
82 K	–	72.93 J/K/mol
82.02 K	–	72.8 J/K/mol
82.08 K	–	72.96 J/K/mol
82.42 K	–	73.44 J/K/mol
82.55 K	–	73.18 J/K/mol
82.59 K	–	73.58 J/K/mol and 73.47 J/K/mol and 73.58 J/K/mol
82.82 K	–	73.8 J/K/mol
82.88 K	–	73.57 J/K/mol
83.22 K	–	74.06 J/K/mol
83.35 K	–	74 J/K/mol
83.4 K	–	74.08 J/K/mol
83.68 K	–	74.24 J/K/mol
84.15 K	–	74.8 J/K/mol
84.2 K	–	74.77 J/K/mol
84.49 K	–	74.98 J/K/mol
84.95 K	–	75.46 J/K/mol
85 K	–	75.41 J/K/mol
85.29 K	–	75.62 J/K/mol
85.8 K	–	76.16 J/K/mol
86.6 K	–	77.02 J/K/mol
87.4 K	–	77.55 J/K/mol
88.21 K	–	78.21 J/K/mol
89.01 K	–	78.75 J/K/mol
89.81 K	–	79.34 J/K/mol
90 K	–	79.57 J/K/mol
90.61 K	–	80.12 J/K/mol
91.41 K	–	80.65 J/K/mol
92.22 K	–	81.07 J/K/mol
93.02 K	–	81.81 J/K/mol
93.82 K	–	82.48 J/K/mol
94.62 K	–	83.08 J/K/mol
95.43 K	–	83.56 J/K/mol
96.23 K	–	84.06 J/K/mol
97.03 K	–	84.89 J/K/mol
97.83 K	–	85.56 J/K/mol
98.64 K	–	86.05 J/K/mol
99.44 K	–	86.39 J/K/mol
100 K	–	86.89 J/K/mol
100.24 K	–	86.97 J/K/mol
101.04 K	–	87.55 J/K/mol
101.84 K	–	88.13 J/K/mol
102.65 K	–	88.72 J/K/mol
103.45 K	–	89.38 J/K/mol
104.25 K	–	89.71 J/K/mol
105.05 K	–	90.38 J/K/mol
105.85 K	–	91.04 J/K/mol
106.65 K	–	91.46 J/K/mol
107.45 K	–	91.87 J/K/mol
108.25 K	–	92.54 J/K/mol
109.05 K	–	93.12 J/K/mol
109.85 K	–	93.62 J/K/mol
110 K	–	93.7 J/K/mol
110.66 K	–	94.2 J/K/mol
111.46 K	–	94.78 J/K/mol
112.26 K	–	95.2 J/K/mol
113.06 K	–	95.87 J/K/mol
113.86 K	–	96.36 J/K/mol
114.66 K	–	96.61 J/K/mol
115.47 K	–	97.36 J/K/mol
116.27 K	–	97.7 J/K/mol
117.07 K	–	98.61 J/K/mol
117.87 K	–	99.11 J/K/mol
118.67 K	–	99.69 J/K/mol
119.47 K	–	100.27 J/K/mol
120 K	–	100.44 J/K/mol
120.28 K	–	100.85 J/K/mol
121.08 K	–	101.19 J/K/mol
121.88 K	–	101.85 J/K/mol
122.68 K	–	102.27 J/K/mol
123.49 K	–	102.77 J/K/mol
